System: A549
Assay: Induction of apoptosis in human A549 cells assessed as late apoptotic cells at 4 uM after 24 hrs by Annexin V/propidium iodide staining-based flow cytometric analysis (reference value: 1.6%)
Format: functional

Q: Which Activity does the source give for O=C(NO)c1ccc(Cn2c(=O)n(CCc3ccccc3)c(=O)c3ccccc32)cc1 here?
A: 0.7%
